From US7763605B2, “[1,4]benzodiazepines as vasopressin V2 receptor antagonists” (Janssen Pharmaceutica, N.V., priority 2004, dated 2010)
Where a name gives a salt, the structure may show the parent alone.

Columns and labels:
[1] = biological target: T1, human V-1 receptor (V1a) (Homo sapiens, UniProt P37288); assay: In vitro recombinant vasopressin receptor binding assay (3H-arginine vasopressin displacement), V1a; details: 0.2 μM test compound, cloned human receptor membranes from HEK-293 cells; for inhibition at 0.2 µM: read-out: Binding V1a (% inhib @ 0.2 μM)
T1 construct: expressed in transfected cells; host or cells: HEK-293 (membranes)
T1 sequence (P37288 whole entry): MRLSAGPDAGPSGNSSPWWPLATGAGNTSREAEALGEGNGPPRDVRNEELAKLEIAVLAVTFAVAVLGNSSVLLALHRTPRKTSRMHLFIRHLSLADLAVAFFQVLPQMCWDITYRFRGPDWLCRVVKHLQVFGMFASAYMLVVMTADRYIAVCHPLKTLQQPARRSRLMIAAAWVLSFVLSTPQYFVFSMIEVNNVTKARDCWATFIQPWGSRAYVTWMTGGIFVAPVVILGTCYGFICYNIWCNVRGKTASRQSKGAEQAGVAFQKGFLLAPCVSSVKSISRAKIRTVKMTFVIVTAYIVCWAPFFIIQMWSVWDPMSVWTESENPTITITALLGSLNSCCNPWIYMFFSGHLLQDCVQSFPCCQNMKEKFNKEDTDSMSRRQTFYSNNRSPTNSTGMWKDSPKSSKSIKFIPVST
Description: (§1) Compounds were assessed for their ability to displace ^3H-arginine vasopressin from the human V-1 or V-2 receptor in HEK-293 cells. Assay buffer is 50 mM Tris-Cl, 5 mM MgCl2, 0.1% BSA (pH 7.5) containing 5 ug/ml of aprotinin, leupeptin, pepstatin, 50 ug/ml bacitracin, and 1 mM Pefabloc. ^3H-vasopressin is ^3H-arginine-8-vasopressin (68.5 Ci/mmol, final concentration in assay is 0.65-0.75 nM). Into wells of 96-well round bottom polypropylene plates were added buffer, test compound, membrane (containing cloned human V-1 or V-2 receptor), and ^3H-vasopressin. The reaction plates were allowed to sit at room temperature for one hour. The samples were filtered through Unifilter GF/C plates (presoaked in 0.3 polyethyleneimine). The plates were washed 5 times with cold physiological saline containing 0.05% Tween 20. After drying, the bottom of the filter plates were sealed and 0.025 ml of Microscint-20 was added to each filter. The top of the plate was sealed, and the plate was counted. Non-specific binding was determined by the addition of 1.25 uM arginine-8-vasopressin in those wells.

[2] = biological target: T2, human V2 receptor (Homo sapiens, UniProt P30518); assay: In vitro recombinant vasopressin receptor binding assay (3H-arginine vasopressin displacement), V2; details: for IC50: cloned human receptor membranes from HEK-293 cells
T2 construct: expressed in transfected cells; host or cells: HEK-293
T2 sequence (P30518 whole entry): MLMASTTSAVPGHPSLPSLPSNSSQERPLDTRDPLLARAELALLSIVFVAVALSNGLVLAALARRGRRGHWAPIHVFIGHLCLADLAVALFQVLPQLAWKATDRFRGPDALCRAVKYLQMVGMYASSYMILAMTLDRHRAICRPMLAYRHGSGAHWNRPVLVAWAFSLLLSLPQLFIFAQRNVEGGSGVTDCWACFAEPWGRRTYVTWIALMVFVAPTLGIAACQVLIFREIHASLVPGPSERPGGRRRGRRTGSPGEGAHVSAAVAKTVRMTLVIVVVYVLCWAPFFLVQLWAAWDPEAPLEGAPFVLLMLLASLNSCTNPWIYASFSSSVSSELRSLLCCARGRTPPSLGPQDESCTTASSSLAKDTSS
Description: as §1

[3] = biological target: T2, human V2 receptor; assay: Inhibition of AVP-induced cAMP accumulation in transfected HEK-293 cells expressing human V2 receptor; type: cell-based; details: AVP 1 nM, HEK-293 expressing human V2, read-out: Functional V2 (IC50; μM)
Description: HEK-293 cells were grown in DMEM media supplemented with 10% FBS and glutamine (Gibco BRL, Grand Island, N.Y.). Once transfected, the cells were passed biweekly by trypsinization and seeded into 96 well plates at 33,000 cells per well. HEK-293 were transfected with human V1a, V1b or V2 DNA using DMRIE-C reagent from Life Technologies, Inc., Grand Island, N.Y. Cells were tested for their responsiveness to vasopressin 48 h after transfection. Stable lines were generated by selecting cells grown in culture media containing geneticin (500 μg/mL, Life Technologies).
The accumulation of cAMP was measured in transfected HEK-293 expressing the human V2 receptor. The cells were cultured 4-7 d in 96-well plates. On the day of testing in this assay, cells were washed twice in assay media (DMEM/F12 containing 0.1% BSA). The cells were treated with the test compound for 5 min and then given AVP (1 nM) in assay media containing 1 mM isobutylmethylxanthine. After 5 min, 0.5 N HCl was added to disrupt the cells and solubilize cAMP. The cAMP content of 20 μL of the cell lysate in each well was measured using cAMP Flashplates (NEN Life Sciences). Data are expressed as pmol cAMP/well. While the assay is optimized to detect and quantitate antagonistic activity, agonistic activity would also be apparent at the higher concentrations of test compounds.
The data from the cAMP accumulation and the calcium mobilization assays are expressed as IC50 values as determined from dose response curves.

Row | Compound | inhibition at 0.2 µM [1] [%] | IC50 [2] [µM] | IC50 [3] [µM] | Binding V1a (% inhib @ 0.2 μM) [1] [%] | inhibition at 0.2 µM ([2]; read-out: Binding V2 (% inhib @ 0.2 μM)) [%]
1 | CS(=O)(=O)N1Cc2ccccc2N(C(=O)c2ccc(NC(=O)c3ccccc3-c3ccccc3)cc2Cl)C[C@H]1CO [Cpd 7, (S)-Biphenyl-2-carboxylic acid [3-chloro-4-(3-hydroxymethyl-4-methanesulfonyl-2,3,4,5-tetrahydrobenzo[e][1,4]diazepine-1-carbonyl)-phenyl]-amide] | 4 | 0.05 | 0.02 |  | 
2 | CS(=O)(=O)OC[C@@H]1CN(C(=O)c2ccc(NC(=O)c3ccccc3-c3ccccc3)cc2Cl)c2ccccc2CN1S(C)(=O)=O [Cpd 8, (S)-methanesulfonic acid 1 {4-[(biphenyl-2-carbonyl)-amino]-2chloro-benzoyl}-4-methanesulfonyl-2,3,4,5-tetrahydro-1H-benzo[e][1,4]diazepin-3-ylmethyl ester] | 0 | 0.4 | 1.08 |  | 
3 | O=C(Nc1ccc(C(=O)N2C[C@@H](CO)N(S(=O)(=O)c3ccccc3)Cc3ccccc32)c(Cl)c1)c1ccccc1-c1ccccc1 [Cpd 11, (S)-Biphenyl-2-carboxylic acid [4-(4-benzenesulfonyl-3-hydroxymethyl-2,3,4,5-tetrahydrobenzo[e][1,4]diazepine-1-carbonyl)-3-chloro-phenyl]-amide] | 0 | 0.23 | 0.773 |  | 
4 | (S)-Biphenyl-2-carboxylic acid [3-chloro-4-(4-methyl-3-morpholino-4-ylmethyl-2,3,4,5-tetrahydrobenzo[e][1,4]diazepine-1-carbonyl)-phenyl]-amide ditrifluoroacetate [Cpd 5] |  |  |  | 0 | 
5 | CC(=O)N1Cc2ccccc2N(C(=O)c2ccc(NC(=O)c3ccccc3-c3ccccc3)cc2Cl)C[C@H]1CO [Cpd 12, (S)-Biphenyl-2-carboxylic acid [4-(4-acetyl-3-hydroxymethyl-2,3,4,5-tetrahydro-benzo[e][1,4]diazepine-1-carbonyl)-3-chloro-phenyl]-amide] | 6 | 0.028 | 0.02 |  | 
6 | CSC[C@@H]1CN(C(=O)c2ccc(NC(=O)c3ccccc3-c3ccccc3)cc2Cl)c2ccccc2CN1C [Cpd 2, (S)-Biphenyl-2-carboxylic acid [3-chloro-4-(4-methyl-3-methylsulfanylmethyl-2,3,4,5-tetrahydrobenzo[e][1,4]diazepine-1-carbonyl)-phenyl]-amide] | 0 | 0.24 | 0.28 |  | 
7 | O=C(Nc1ccc(C(=O)N2C[C@@H](CO)N(Cc3ccccc3)Cc3ccccc32)c(Cl)c1)c1ccccc1-c1ccccc1 [Cpd 1, (S)-Biphenyl-2-carboxylic acid [4-(4-benzyl-3-hydroxymethyl-2,3,4,5-tetrahydro-benzo[e][1,4]diazepine-1-carbonyl)-3-chloro-phenyl]-amide] | 1 | 0.5 |  |  | 
8 | CCCS(=O)(=O)N1Cc2ccccc2N(C(=O)c2ccc(NC(=O)c3ccccc3-c3ccccc3)cc2Cl)C[C@H]1CO [Cpd 10, (S)-Biphenyl-2-carboxylic acid {3-chloro-4-[3-hydroxymethyl-4-(propane-1-sulfonyl)-2,3,4,5-tetrahydrobenzo[e][1,4]diazepine-1-carbonyl]-phenyl}-amide] | 2 | 0.065 | 0.03 |  | 
9 | CN1Cc2ccccc2N(C(=O)c2ccc(NC(=O)c3ccccc3-c3ccccc3)cc2Cl)C[C@H]1COC1CCCC1 [Cpd 4, (S)-Biphenyl-2-carboxylic acid [3-chloro-4-(3-cyclopentyloxymethyl-4-methyl-2,3,4,5-tetrahydrobenzo[e][1,4]diazepine-1-carbonyl)-phenyl]-amide trifluoroacetate] | 0 |  | > 10 |  | 22
10 | CN1Cc2ccccc2N(C(=O)c2ccc(NC(=O)c3ccccc3-c3ccccc3)cc2Cl)C[C@@H]1CN1CCCC1 [Cpd 3, (S)-Biphenyl-2-carboxylic acid [3-chloro-4-(4-methyl-3-pyrrolidin-1-ylmethyl-2,3,4,5-tetrahydrobenzo[e][1,4]diazepine-1-carbonyl)-phenyl]-amide ditrifluoroacetate] | 0 | 0.34 | 0.71 |  | 
11 | CC(=O)OC[C@@H]1CN(C(=O)c2ccc(NC(=O)c3ccccc3-c3ccccc3)cc2Cl)c2ccccc2CN1C(C)=O [Cpd 9, (S)-Acetic acid 4-acetyl-1-{4-[(biphenyl-2-carbonyl)-amino]-2-chloro-benzoyl}-2,3,4,5-tetrahydro-1H-benzo[e][1,4]diazepin-3-ylmethyl ester] | 2 | 0.045 | 0.04 |  | 
12 | COC[C@@H]1CN(C(=O)c2ccc(NC(=O)c3ccccc3-c3ccccc3)cc2Cl)c2ccccc2CN1C [Cpd 6, (S)-Biphenyl-2-carboxylic acid [3-chloro-4-(3-methoxymethyl-4-methyl-2,3,4,5-tetrahydrobenzo[e][1,4]diazepine-1-carbonyl)-phenyl]-amide trifluoroacetate] | 0 | 0.066 | 0.025 |  | 
